In patent US11571423B2, “Small molecule modulators of human sting” (Curadev Pharma Limited, priority 2017, dated 2023) one finds EC50 data, which are given here for seven molecules.

Molecules are shown by their SMILES. Where only a bound is given, the exact number is not on record here.

In one experiment the test system is IRF pathway. The experiment in a line: Reporter gene expression assay in THP1-Dual cells, IRF axis (secreted Lucia luciferase). The experiment is classed as cell-based, human. The conditions noted are these: Homo sapiens, 20 hr stimulation, EC50 range class, read-out: THP-IRF activity. The method, boiled down: (§1)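 Human THP-1 monocyte-derived cells with two inducible reporters: 5×10^5 cells seeded and stimulated with compounds for 20 hr. SEAP (QUANTI-Blue) and Lucia luciferase (QUANTI-Luc) measured in supernatant; EC50 values reported as ranges.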

For experiment [1], the target named is cynomolgus monkey STING protein (Macaca fascicularis, UniProt A0A2R3XZA6). Put plainly: Luciferase reporter assay, cynomolgus monkey STING overexpressed in HEK293T cells. The experiment is classed as cell-based. The note with it: cynomolgus monkey STING overexpressed in HEK293T cells; read-out: Cynomolgus monkey STING activity (EC50 range). The method, boiled down: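 HEK293T cells overexpressing cynomolgus STING with a secreted luciferase reporter were stimulated with compound for 20 hr. Supernatant reporter activity was then measured by Quanti-Luc luminescence, and EC50 values were derived.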
Sequence of cynomolgus monkey STING protein (A0A2R3XZA6 entry or part of it): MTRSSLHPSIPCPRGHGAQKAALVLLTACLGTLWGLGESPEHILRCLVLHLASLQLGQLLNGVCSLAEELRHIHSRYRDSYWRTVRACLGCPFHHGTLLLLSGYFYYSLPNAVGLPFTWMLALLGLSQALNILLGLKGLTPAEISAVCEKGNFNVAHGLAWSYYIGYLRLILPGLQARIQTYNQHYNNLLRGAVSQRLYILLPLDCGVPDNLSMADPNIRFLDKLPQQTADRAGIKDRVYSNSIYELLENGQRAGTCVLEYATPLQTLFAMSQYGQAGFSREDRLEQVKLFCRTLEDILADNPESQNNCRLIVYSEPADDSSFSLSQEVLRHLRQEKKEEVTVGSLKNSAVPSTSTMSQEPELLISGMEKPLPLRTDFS

The target in another experiment is hSTING(H232) (Homo sapiens, UniProt Q86WV6). The experiment in a line: Luciferase reporter assay in HEK293T-hSTING-Luciferase cells, H232/REF polymorph. The note with it: H232/REF polymorph of human STING, EC50 range class. The experiment is classed as cell-based. The method, boiled down:
(§2)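 HEK293T cells stably co-express the hSTING variant (hEF1-HTLV promoter) and an ISRE/ISG54 IRF-inducible luciferase reporter. Clones with minimal ligand-independent activation were used. Cells were stimulated with compounds for 20 hr, and secreted luciferase in the supernatant was read by luminescence to give EC50.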
Background: A reporter such as luciferase makes a cellular process visible.

The next experiment has as its target hSTING(HAQ) (Homo sapiens, UniProt Q86WV6, G230A/H232R/R293Q/R71H). Put plainly: Luciferase reporter assay in HEK293T-hSTING-Luciferase cells, HAQ polymorph. Format: cell-based. The note with it: HAQ polymorph of human STING, EC50 range class. The method, boiled down: as §2
The next experiment concerns the target hSTING(R232) (Homo sapiens, UniProt Q86WV6, H232R). The experiment in a line: Luciferase reporter assay in HEK293T-hSTING-Luciferase cells, R232 (wild type) human STING. The experiment is classed as cell-based. The conditions noted are these: 20 hr stimulation, read-out: R232 human activity (EC50 range). Put shortly: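 After 20 hr compound stimulation of 5×10^5 cells, secreted luciferase in the supernatant was measured by luminescence; values are fold-induction over baseline and EC50. The line is a clonal HEK293T stably carrying a STING plasmid (pUNO-1) and a luciferase reporter under five tandem ISREs fused to an ISG54 promoter.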

The next experiment relates to NF-κB pathway. Put plainly: Reporter gene expression assay in THP1-Dual cells, NFkB axis (secreted SEAP). The experiment is classed as cell-based, human. The note with it: Homo sapiens, 20 hr stimulation, EC50 range class, read-out: THP-NFκB activity. The method, boiled down:
as §1

Sequence of hSTING(H232) (Q86WV6 whole entry): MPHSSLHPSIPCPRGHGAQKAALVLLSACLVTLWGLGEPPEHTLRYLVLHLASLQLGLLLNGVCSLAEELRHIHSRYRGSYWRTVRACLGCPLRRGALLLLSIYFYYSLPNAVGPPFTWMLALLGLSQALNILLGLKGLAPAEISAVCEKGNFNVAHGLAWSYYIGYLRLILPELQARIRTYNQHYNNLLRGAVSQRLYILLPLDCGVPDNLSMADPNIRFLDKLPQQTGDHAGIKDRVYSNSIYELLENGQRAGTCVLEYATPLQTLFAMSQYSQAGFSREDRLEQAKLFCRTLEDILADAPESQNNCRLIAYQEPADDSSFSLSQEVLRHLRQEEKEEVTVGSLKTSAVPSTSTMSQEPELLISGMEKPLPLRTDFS
Sequence of hSTING(HAQ) (Q86WV6 whole entry R71H/G230A/H232R/R293Q): as the sequence (Q86WV6 whole entry) above, with R71H, G230A, H232R, R293Q counted along it
Sequence of hSTING(R232) (Q86WV6 whole entry H232R, the tested form may be a part): as the sequence (Q86WV6 whole entry) above, with H232R counted along it

With `Cc1nccc(CN2C(=O)N(C)[C@@H](C)c3ccc(C(=O)NCc4c(F)cc(F)cc4F)cc32)c1F` [Example 261, (S)-1-((3-fluoro-2-methylpyridin-4-yl)methyl)-3,4-dimethyl-2-oxo-N-(2,4,6-trifluorobenzyl)-1,2,3,4-tetrahydroquinazoline-7-carboxamide], the EC50 (in the experiment on IRF pathway; in experiment [1]; at hSTING(H232); at hSTING(HAQ); at hSTING(R232); with NF-κB pathway) was < 1000 nM in each case.
On to `C[C@H]1c2ccc(C(=O)NCc3c(F)cc(F)cc3F)cc2N(Cc2cc(O)ccc2F)C(=O)N1C` [Example 262, (S)-1-(2-fluoro-5-hydroxybenzyl)-3,4-dimethyl-2-oxo-N-(2,4,6-trifluorobenzyl)-1,2,3,4-tetrahydroquinazoline-7-carboxamide], for which the EC50 (with IRF pathway; in experiment [1]; at hSTING(H232); on hSTING(HAQ); on hSTING(R232); in the experiment on NF-κB pathway) was < 1000 nM in each case.
With `C[C@H]1c2ccc(C(=O)NCc3c(F)cc(F)cc3F)cc2N(Cc2cc(O)cc(F)c2F)C(=O)N1C` [Example 281, (S)-1-(2,3-difluoro-5-hydroxybenzyl)-3,4-dimethyl-2-oxo-N-(2,4,6-trifluorobenzyl)-1,2,3,4-tetrahydroquinazoline-7-carboxamide], the EC50 (with IRF pathway; in experiment [1]; on hSTING(H232); on hSTING(HAQ); on hSTING(R232); in the experiment on NF-κB pathway) was < 1000 nM throughout.
Regarding `C[C@H]1c2ccc(C(=O)NCc3c(F)cc(F)cc3F)cc2N(Cc2cc(OCCCO)cc(F)c2F)C(=O)N1C` [Example 283, (S)-1-(2,3-difluoro-5-(3-hydroxypropoxy)benzyl)-3,4-dimethyl-2-oxo-N-(2,4,6-trifluorobenzyl)-1,2,3,4-tetrahydroquinazoline-7-carboxamide], the EC50 was < 1000 nM with IRF pathway; 1000 to 10000 nM in experiment [1]; < 1000 nM at hSTING(H232); < 1000 nM on hSTING(HAQ); < 1000 nM on hSTING(R232); < 1000 nM in the experiment on NF-κB pathway.
Turning to `C[C@H]1c2ccc(C(=O)NCc3c(F)cc(F)cc3F)cc2N(Cc2c(F)cc(OCCNS(C)(=O)=O)cc2F)C(=O)N1C` [Example 290, (S)-1-(2,6-difluoro-4-(2-(methylsulfonamido)ethoxy)benzyl)-3,4-dimethyl-2-oxo-N-(2,4,6-trifluorobenzyl)-1,2,3,4-tetrahydroquinazoline-7-carboxamide], the EC50 (with IRF pathway; in experiment [1]; at hSTING(H232); at hSTING(HAQ); on hSTING(R232); with NF-κB pathway) was < 1000 nM throughout.
Consider `COc1cnc(C)c(F)c1CN1C(=O)N(C)[C@@H](C)c2ccc(C(=O)NCc3c(F)cc(F)cc3F)cc21` [Example 296, (S)-1-((3-fluoro-5-methoxy-2-methylpyridin-4-yl)methyl)-3,4-dimethyl-2-oxo-N-(2,4,6-trifluorobenzyl)-1,2,3,4-tetrahydroquinazoline-7-carboxamide], for which the EC50 (in the experiment on IRF pathway; in experiment [1]; at hSTING(H232); at hSTING(HAQ); at hSTING(R232); with NF-κB pathway) was < 1000 nM throughout.
In the case of `C[C@H]1c2ccc(C(=O)NCc3c(F)cc(F)cc3F)cc2N(Cc2c(F)cc(O)cc2Cl)C(=O)N1C` [Example 298, (S)-1-(2-chloro-6-fluoro-4-hydroxybenzyl)-3,4-dimethyl-2-oxo-N-(2,4,6-trifluorobenzyl)-1,2,3,4-tetrahydroquinazoline-7-carboxamide], the EC50 (in the experiment with IRF pathway; in experiment [1]; at hSTING(H232); on hSTING(HAQ); at hSTING(R232); with NF-κB pathway) was < 1000 nM in each case.
